Assay results published in patent publication US20230133910A1, “NEW METHOD FOR DETECTING AND QUANTIFYING RNA” (EAST CHINA UNIVERSITY OF SCIENCE AND TECHNOLOGY, priority 2020, published 2023).

Legend:
Carrot-1 RNA aptamer = assay: Properties of Carrot-1 RNA aptamer with different fluorophores (spectra, extinction coefficient, quantum yield, activation fold); type: biochemical; settings: for Emmax / Exmax / Extinction coefficient / Quantum yield: fluorophore bound to Carrot-1 RNA aptamer; for Activation fold: fluorophore with Carrot-1 RNA aptamer versus fluorophore alone
Method: (§1) (5) Function detection of nucleic acid aptamers Carrot or Carrot mutant nucleic acid aptamer molecules were prepared according to common experimental method (I), 5 μM of nucleic acid aptamer molecules and 1 μM of fluorophore molecules were incubated in detection buffer (40 mM HEPES, pH 7.4, 125 mM KCl, 5 mM MgCl2, 5% DMSO), and Synergy Neo2 multifunctional microplate reader was used for detecting and obtaining the maximum excitation peak and the maximum emission peak of the fluorescence of the nucleic acid aptamer-fluorophore molecule complex. The Synergy Neo2 multifunctional microplate reader was used again for detecting the fluorescence intensity of the aptamer-fluorophore molecule complex under its maximum excitation and emission conditions. Control sample (1 μM of fluorophore molecules without nucleic acid aptamer) was measured under the same condition, and the ratio of fluorescence intensity was calculated. […] By using Synergy Neo2 multifunctional microplate reader, it was detected that the fluorescence intensity of the complex was 5720 when it was excited at 524±10 nm and emitted under the emission condition of 580 nm±10 nm, while fluorescence intensity of the control sample (1 μM of IV-39 fluorophore molecules) under the same detection condition was 20, so the activation multiple of Carrot-1 nuclear acid aptamer to IV-39 fluorophore molecule was 286.
In order to detect the spectral properties of the Carrot-IV-39 complex, Carrot-1 (SEQ ID NO: 2) RNA was prepared according to the commonly used experimental method (1). 1 μM IV-39 with 5 μM Carrot-1 was incubated.
Carrot-1 RNA aptamer was prepared according to the commonly used experimental methods (1), and was used to detect the properties of IV-39 analogues upon Carrot binding, including the fluorescence spectrum, extinction coefficient, quantum yield and fluorescence activation fold. From the data shown in the table, Carrot-1 still could activate the fluorescence of IV-39 analogues.

[1] = Fluorescence activation of IV-39 by base-modified Carrot; type: biochemical; settings: control buffer
Method: as §1, with “286. […]” for “286.”

Compound	Emmax (Carrot-1 RNA aptamer)	Exmax (Carrot-1 RNA aptamer)	Extinction coefficient (Carrot-1 RNA aptamer)	Quantum yield (Carrot-1 RNA aptamer)	Activation fold (Carrot-1 RNA aptamer)	activation of the fluorescence of IV-39 fluorophore [1]
CN1C(=O)/C(=C/c2cc(F)c(O)c(F)c2)N=C1/C=C/c1cccc(O)c1 [Carrot-1-IV-4]	574 nm	490 nm	23000 M⁻¹ cm⁻¹	0.37	191 fold	–
CN1C(=S)/C(=C/c2cc(F)c(O)c(F)c2)N=C1/C=C/c1ccc(F)cc1 [Carrot-1-IV-7]	598 nm	514 nm	24000 M⁻¹ cm⁻¹	0.27	201 fold	–
CN1C(=S)/C(=C/c2cc(F)c(O)c(F)c2)N=C1/C=C/c1ccc(C#N)cc1 [Carrot-1-IV-8]	638 nm	534 nm	22500 M⁻¹ cm⁻¹	0.21	68 fold	–
CC(C)CN1C(=O)/C(=C/c2cc(F)c(O)c(Br)c2)N=C1/C=C/c1ncc(C#N)cn1 [Carrot-1-IV-11]	614 nm	507 nm	21000 M⁻¹ cm⁻¹	0.05	16 fold	–
COCCOCCOCCOCCN1C(=O)/C(=C/c2cc(F)c(O)c(I)c2)N=C1/C=C/c1ccc(Cl)cc1 [Carrot-1-IV-12]	577 nm	482 nm	19000 M⁻¹ cm⁻¹	0.03	6 fold	–
CNC(=O)CN1C(=O)/C(=C/c2cc(Cl)c(O)c(Cl)c2)N=C1/C=C/c1ccc(Br)cc1 [Carrot-1-IV-13]	579 nm	478 nm	20000 M⁻¹ cm⁻¹	0.02	5 fold	–
C#CCN1C(=O)/C(=C/c2ccc(O)c(Cl)c2)N=C1/C=C/c1ccc(I)cc1 [Carrot-1-IV-14]	585 nm	482 nm	21000 M⁻¹ cm⁻¹	0.02	6 fold	–
O=C1/C(=C/c2ccc(O)c(Br)c2)N=C(/C=C/c2cccc(Cl)c2)N1CCO [Carrot-1-IV-15]	578 nm	480 nm	21000 M⁻¹ cm⁻¹	0.03	7 fold	–
CN1C(=O)/C(=C/c2cc(Br)c(O)c(Br)c2)N=C1/C=C/c1ccc(F)cc1 [Carrot-1-IV-16]	587 nm	485 nm	22000 M⁻¹ cm⁻¹	0.08	34 fold	–
CN1C(=O)/C(=C/c2ccc(N(C)CCO)cc2)N=C1/C=C/c1cccc(O)c1 [Carrot-1-IV-17]	582 nm	524 nm	32000 M⁻¹ cm⁻¹	0.47	282 fold	–
CN1C(=O)/C(=C/c2ccc(N(C)CCO)cc2)N=C1/C=C/c1cccc(F)c1 [Carrot-1-IV-19]	590 nm	522 nm	30000 M⁻¹ cm⁻¹	0.43	331 fold	–
CN1C(=O)/C(=C/c2ccc(N(C)CCO)cc2)N=C1/C=C/c1ccc(F)cc1 [Carrot-1-IV-22]	580 nm	522 nm	32000 M⁻¹ cm⁻¹	0.46	301 fold	–
C=CCOCCN(C)c1ccc(/C=C2N=C(/C=C/c3ccccc3C#N)N(C)C\2=S)cc1 [Carrot-1-IV-23]	648 nm	547 nm	19000 M⁻¹ cm⁻¹	0.12	57 fold	–
C#CCOCCN(C)c1ccc(/C=C2N=C(/C=C/c3ccc(F)cc3)N(C)C\2=O)cc1 [Carrot-1-IV-36]	578 nm	511 nm	22000 M⁻¹ cm⁻¹	0.28	262 fold	–
Carrot-3: base-modified Carrot, SEQ ID NO: 5, GGGAAGATTGTAAACACGCCGAAAGGCGGACACTTCCC containing deoxyribonucleotide bases (GGGAAGAUUGUAAACACGCCGAAAGGCGGACACUUCCC; some positions are deoxyribonucleotides, which ones are not given here in text)	–	–	–	–	–	significantly activate
Carrot-4: base-modified Carrot, SEQ ID NO: 6, GGGAAGATTGTAAACACGCCGAAAGGCGGACACTTCCC containing 2′-F modification (GGGAAGAUUGUAAACACGCCGAAAGGCGGACACUUCCC; some positions carry 2'-F, which ones are not given here in text)	–	–	–	–	–	significantly activate

Further lines, with some results ahead:

Emmax (Carrot-1 RNA aptamer)	Exmax (Carrot-1 RNA aptamer)	Extinction coefficient (Carrot-1 RNA aptamer)	Quantum yield (Carrot-1 RNA aptamer)	Compound	Activation fold (Carrot-1 RNA aptamer)	activation of the fluorescence of IV-39 fluorophore [1]
615 nm	498 nm	21000 M⁻¹ cm⁻¹	0.09	CCCN1C(=S)/C(=C/c2ccc(N(C)C)nc2)N=C1/C=C/c1ccccc1F [Carrot-1-IV-24]	45 fold	–
574 nm	475 nm	18000 M⁻¹ cm⁻¹	0.02	CCN(CC)c1ccc(/C=C2N=C(/C=C/c3ccc(Cl)cc3)N(CC(=O)OC)C\2=O)nc1 [Carrot-1-IV-25]	4 fold	–
576 nm	472 nm	19000 M⁻¹ cm⁻¹	0.09	CN1C(=O)/C(=C/c2cnc(N(C)CCC#N)nc2)N=C1/C=C/c1ccccc1I [Carrot-1-IV-27]	57 fold	–
579 nm	476 nm	19000 M⁻¹ cm⁻¹	0.04	CN1CCc2cc(/C=C3N=C(/C=C/c4ccc(F)nc4)N(CCO)C\3=O)ccc21 [Carrot-1-IV-28]	19 fold	–
619 nm	531 nm	27000 M⁻¹ cm⁻¹	0.26	CN1C(=O)/C(=C/c2ccc(N(C)CCS(=O)(=O)O)cc2)N=C1/C=C/c1ccc(C#N)cc1 [Carrot-1-IV-29]	87 fold	–
588 nm	485 nm	19000 M⁻¹ cm⁻¹	0.05	CN1CCc2cc(/C=C3N=C(/C=C/c4ccc(Br)nc4)N(CC(F)(F)F)C\3=O)ccc21 [Carrot-1-IV-30]	15 fold	–
621 nm	508 nm	24000 M⁻¹ cm⁻¹	0.15	COCCOCCOCCOCC(=O)OCCN(C)c1ccc(/C=C2N=C(/C=C/c3ccc(C#N)cc3)N(C)C\2=O)cc1 [Carrot-1-IV-31]	75 fold	–
591 nm	489 nm	22000 M⁻¹ cm⁻¹	0.11	COC(=O)CNCCN(C)c1ccc(/C=C2N=C(/C=C/c3ccc(Br)cc3)N(C)C\2=O)cc1 [Carrot-1-IV-32]	64 fold	–
592 nm	519 nm	28000 M⁻¹ cm⁻¹	0.38	CN1C(=O)/C(=C/c2ccc(N(C)CCN)cc2)N=C1/C=C/c1cccc(F)c1 [Carrot-1-IV-33]	287 fold	–
581 nm	515 nm	29000 M⁻¹ cm⁻¹	0.38	CN(C)CCN(C)c1ccc(/C=C2N=C(/C=C/c3cccc(F)c3)N(C)C\2=O)cc1 [Carrot-1-IV-34]	287 fold	–
619 nm	527 nm	21000 M⁻¹ cm⁻¹	0.14	CN1C(=O)/C(=C/c2ccc(N)cc2)N=C1/C=C/c1ccc(C#N)cc1 [Carrot-1-IV-35]	97 fold	–
581 nm	519 nm	26000 M⁻¹ cm⁻¹	0.31	CN1C(=O)/C(=C/c2cc(F)c(O)c(F)c2)N=C1/C=C/c1ccccn1 [Carrot-1-IV-38]	257 fold	–
